Test results from ChEMBL document CHEMBL1142990, “Self-organizing maps for identification of new inhibitors of P-glycoprotein” (J Med Chem, 2007).

Molecular target: ATP-dependent translocase ABCB1 (Homo sapiens, UniProt P08183)
Assay: Inhibition of P-glycoprotein expressed in MDR CCRF vcr1000 cells by daunorubicin efflux assay

ATP-dependent translocase ABCB1, sequence (P08183 whole entry): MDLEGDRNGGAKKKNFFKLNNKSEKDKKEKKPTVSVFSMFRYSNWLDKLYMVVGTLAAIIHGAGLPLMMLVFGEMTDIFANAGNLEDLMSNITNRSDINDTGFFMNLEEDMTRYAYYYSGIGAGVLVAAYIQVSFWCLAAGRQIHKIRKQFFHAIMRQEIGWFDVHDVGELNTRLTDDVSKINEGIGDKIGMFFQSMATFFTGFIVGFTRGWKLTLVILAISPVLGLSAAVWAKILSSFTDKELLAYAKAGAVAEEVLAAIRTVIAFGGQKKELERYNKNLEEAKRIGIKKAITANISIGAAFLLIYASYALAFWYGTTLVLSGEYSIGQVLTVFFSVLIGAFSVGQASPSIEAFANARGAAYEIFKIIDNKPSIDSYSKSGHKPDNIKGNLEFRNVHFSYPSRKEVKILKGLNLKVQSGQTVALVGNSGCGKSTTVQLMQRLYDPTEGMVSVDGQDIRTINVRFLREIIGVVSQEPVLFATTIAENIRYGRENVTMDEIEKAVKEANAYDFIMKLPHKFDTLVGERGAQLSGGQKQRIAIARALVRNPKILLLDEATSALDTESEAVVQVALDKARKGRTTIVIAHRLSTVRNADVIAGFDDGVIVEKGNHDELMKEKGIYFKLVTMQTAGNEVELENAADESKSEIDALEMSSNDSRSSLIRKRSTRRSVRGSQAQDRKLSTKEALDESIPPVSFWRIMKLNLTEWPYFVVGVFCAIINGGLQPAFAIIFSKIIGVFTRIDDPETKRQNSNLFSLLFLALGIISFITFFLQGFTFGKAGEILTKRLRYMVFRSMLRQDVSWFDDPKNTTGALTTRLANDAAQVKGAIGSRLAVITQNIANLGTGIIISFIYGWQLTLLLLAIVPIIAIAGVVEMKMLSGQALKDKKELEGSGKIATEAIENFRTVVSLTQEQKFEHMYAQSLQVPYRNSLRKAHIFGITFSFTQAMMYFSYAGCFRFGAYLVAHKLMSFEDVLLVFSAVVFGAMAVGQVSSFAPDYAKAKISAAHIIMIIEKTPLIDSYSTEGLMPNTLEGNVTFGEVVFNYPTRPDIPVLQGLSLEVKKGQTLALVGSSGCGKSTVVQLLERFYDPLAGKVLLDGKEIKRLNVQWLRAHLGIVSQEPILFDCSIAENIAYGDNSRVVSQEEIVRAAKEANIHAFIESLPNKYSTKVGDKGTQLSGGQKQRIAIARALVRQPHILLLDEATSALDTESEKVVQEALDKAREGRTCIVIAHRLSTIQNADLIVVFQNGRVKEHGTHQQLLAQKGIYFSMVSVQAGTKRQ

Row | EC50 [nM] | Structure (SMILES)
1 | 70 | O=C(CCc1ccccc1)c1ccccc1OCC(O)CN1CCN(c2ccc(F)cc2)CC1 (centres undefined)
2 | 290 | CCC(C)c1ccc(N2C(=O)c3ccccc3NC2c2ccc(C(C)C)cc2)cc1 (centres undefined)
3 | 137 | O=C(CCc1ccccc1)c1ccccc1OCCCCCCCCN1CCCCC1
4 | 972 | O=C(CCc1ccccc1)c1ccc(OCC(O)CN2CCCCC2)cc1 (centres undefined)
5 | 230 | COc1ccccc1N1CCN(CC(O)COc2ccccc2C(=O)CCc2ccccc2)CC1 (centres undefined)
6 | 104000 | CC1c2ccccc2OC1C(=O)N1CCCCC1 (centres undefined)
7 | 102000 | COc1cccc(/C=N/NC(=O)C(=O)NC(C)(C)C)c1O
8 | 280 | CC(=O)c1c(C)cc(C)c(CSc2nc3ccc(NC(=O)c4ccc(C(C)(C)C)cc4)cc3s2)c1C
9 | 651 | O=C(CCc1ccccc1)c1ccccc1OCCCN1CCCCC1
10 | 9540 | OC(COc1ccccc1C(O)CCc1ccccc1)CN1CCOCC1 (centres undefined)
11 | > 500000 | COc1ccc(CC(O)CO)cc1OC (centres undefined)
12 | 14 | COc1ccc(CCC(=O)c2ccccc2OCC(O)CN2CCN(c3ccccc3C)CC2)cc1 (centres undefined)
13 | 3480 | O=C(CCc1ccccc1)c1cccc(OCC(O)CN2CCOCC2)c1 (centres undefined)
14 | 8770 | CCOc1ccccc1NC(=O)C1=C(C)NC(=S)NC1c1cccs1 (centres undefined)
15 | 3500 | C=CCn1c(SCCCC)nc2c(c1=O)C1(CCCC1)Cc1ccccc1-2
16 | 256 | COc1ccc(N2CCN(CC(O)COc3ccccc3C(=O)CCc3ccccc3)CC2)cc1 (centres undefined)
17 | 13 | Cc1ccccc1N1CCN(CC(O)COc2ccccc2C(=O)CCc2ccc(N(C)C)cc2)CC1 (centres undefined)
18 | 177 | COc1ccccc1N1CCN(CC(O)c2oc3ccccc3c2CCc2ccccc2)CC1 (centres undefined)
19 | 723 | O=C(CCc1cccc2ccccc12)c1ccccc1OCC(O)CNCCC(c1ccccc1)c1ccccc1 (centres undefined)

Row | EC50 [nM] | Structure (SMILES)
20 | 27 | Cc1ccccc1N1CCN(CC(O)COc2ccccc2C(=O)CCc2ccccc2)CC1 (centres undefined)
21 | 610 | O=C(CCc1ccccc1)c1ccccc1OCC(O)CN1CCN(c2ccccc2)CC1 (centres undefined)
22 | 6660 | O=C(C1Oc2ccccc2C1CCc1ccccc1)N1CCCCC1 (centres undefined)
23 | 460 | CC(C)OC(CCc1ccccc1)c1ccccc1OCC(O)CN1CCCCC1 (centres undefined)
24 | 300 | CC(=O)c1c(C)cc(C)c(CSc2nc3ccc(NC(=O)CCc4ccccc4)cc3s2)c1C
25 | 23200 | CCOC(=O)COc1ccccc1C(=O)CCc1ccccc1
26 | 901 | OC(COc1ccccc1C(O)CCc1ccccc1)CN1CCCCC1 (centres undefined)
27 | 179 | COc1ccc(OCC(O)CN2CCN(c3ccccc3C)CC2)c(C(=O)CCc2ccccc2)c1 (centres undefined)
28 | 1810 | COC(CCc1ccccc1)c1ccccc1OCC(O)CN1CCOCC1 (centres undefined)
29 | 336 | CC(=O)OC(COc1ccccc1C(=O)CCc1ccccc1)CN1CCCCC1 (centres undefined)
30 | 2540 | O=C(CCc1ccccc1)c1ccc(OCC(O)CN2CCN(c3ccc(F)cc3)CC2)cc1 (centres undefined)
31 | 9680 | CC1Cc2cccc(OCC(O)CN3CCCCC3)c2C1=O (centres undefined)
32 | 678 | COc1cccc(N2CCN(CC(O)COc3ccccc3C(=O)CCc3ccccc3)CC2)c1 (centres undefined)
33 | 797 | O=C(CCc1ccccc1)c1ccccc1OCC(O)CNCC(c1ccccc1)c1ccccc1 (centres undefined)
34 | 379 | CC(=O)c1cccc(OCC(=O)CN2CCN(c3cccc(C)c3C)CC2)c1
35 | > 100000 | CCc1ccc(N2C(=O)c3ccccc3NC2c2ccc(OCc3ccccc3)cc2)cc1 (centres undefined)
36 | 2480 | CN(C)CC(O)COc1ccccc1C(=O)CCc1ccccc1 (centres undefined)
37 | 17 | Cc1ccccc1N1CCN(CC(O)COc2cc(Cl)c(Cl)cc2C(=O)CCc2ccccc2)CC1 (centres undefined)
38 | 1730 | O=C(CCc1ccccc1)c1cc(O)ccc1OCC(O)CN1CCCCC1 (centres undefined)

Row | EC50 [nM] | Structure (SMILES)
39 | 178 | CC(=O)c1ccc(OCC(O)CNCCC(c2ccccc2)c2ccccc2)cc1 (centres undefined)
40 | 3080 | Cc1ccc(-c2n[nH]c3c2C(c2ccc(N(C)C)cc2)C(C#N)=C(N)O3)cc1 (centres undefined)
41 | 110 | CC(=O)c1c(C)cc(C)c(CSc2nc3ccc(NC(=O)c4cccc5ccccc45)cc3s2)c1C
42 | 820 | CCC(C)c1ccc(C2Nc3ccccc3C(=O)N2c2ccc(Cl)cc2)cc1 (centres undefined)
43 | 190 | O=C(CCc1ccccc1)c1cccc(OCC(O)CNCCC(c2ccccc2)c2ccccc2)c1 (centres undefined)
44 | 130 | O=C(CCc1ccccc1)c1ccccc1OCC(O)CN1CCN(C(=O)c2ccccc2)CC1 (centres undefined)
45 | 1040 | CC(C)N(CC(O)COc1ccc(O)cc1C(=O)CCc1ccccc1)C(C)C (centres undefined)
46 | 752 | COC(CCc1ccccc1)c1ccccc1OCC(O)CNCCC(c1ccccc1)c1ccccc1 (centres undefined)
47 | 40 | COc1ccc(C(=O)CCc2ccc(N(C)C)cc2)c(OCC(O)CN2CCN(c3ccccc3C)CC2)c1 (centres undefined)
48 | 377 | CC(C)N(CC(O)COc1ccccc1C(=O)CCc1ccccc1)C(C)C (centres undefined)
49 | 3650 | O=C(CCc1ccccc1)c1ccccc1OCC(O)CN1CCOCC1 (centres undefined)
50 | 658 | COC(CCc1ccccc1)c1ccccc1OCC(O)CN(C(C)C)C(C)C (centres undefined)
51 | > 20000 | CC(C)(C)c1ccc(C(=O)Nc2ccc3nc(SCc4cccc5ccccc45)sc3c2)cc1
52 | 10100 | CC(=O)c1cccc(OCC(O)CN2CCN(c3ccc(F)cc3)CC2)c1 (centres undefined)
53 | 11500 | CCCNCC(O)c1oc2ccccc2c1CC (centres undefined)
54 | 416 | CCCN(C)CC(O)COc1ccccc1C(=O)CCc1ccccc1 (centres undefined)
55 | 1100 | CCCNC[C@@H](O)c1oc2ccccc2c1CCc1ccccc1
56 | 760 | CCC(C)c1ccc(N2C(=O)c3ccccc3NC2c2ccc(OC)cc2)cc1 (centres undefined)

Continued, compound first:

Row | Structure (SMILES) | EC50 [nM]
57 | O=C(CCc1ccccc1)c1ccccc1OCC(O)CNC(c1ccccc1)C1CCCCC1 (centres undefined) | 145
58 | COC(CCc1ccccc1)c1ccccc1OCC(O)CN1CCCCC1 (centres undefined) | 173
59 | CC(=O)c1ccccc1OCC(O)CN1CCOCC1 (centres undefined) | 207000
60 | CC(=O)c1ccccc1OCC(O)CN1CCN(c2ccc(F)cc2)CC1 (centres undefined) | 2090
61 | O=C(CCc1ccccc1)c1ccccc1OCC(O)CN1CCC(O)(c2ccccc2)CC1 (centres undefined) | 58
62 | O=C(CCc1ccccc1)c1cc(OCc2ccccc2)ccc1OCC(O)CN1CCN(Cc2ccccc2)CC1 (centres undefined) | 116
63 | CC(=O)c1ccccc1OCC(O)CN1CCC(O)(c2ccccc2)CC1 (centres undefined) | 3200
64 | O=C(CCc1ccccc1)c1ccccc1OCCCCCCN1CCCCC1 | 203
65 | CCCNC[C@H](O)c1oc2ccccc2c1CCc1ccccc1 | 1060
66 | O=C1CCc2c(OCC(O)CN3CCCCC3)cccc21 (centres undefined) | 11200
67 | CC(=O)c1ccccc1OCC(O)CN1CCCCC1 (centres undefined) | 32000
68 | CCN(CC)CC(O)COc1ccccc1C(=O)c1ccccc1 (centres undefined) | 2320
69 | CC(=O)c1ccc(OCC(O)CN2CCN(c3ccccc3C)CC2)cc1 (centres undefined) | 1550
70 | O=C(c1ccccc1)c1ccccc1OCC(O)CN1CCC(O)(c2ccccc2)CC1 (centres undefined) | 307
71 | O=C(CCc1ccccc1)c1ccccc1OCCN1CCCCC1 | 1450
72 | CCN(CC)CC(O)COc1ccccc1C(=O)CCc1ccccc1 (centres undefined) | 907
73 | O=C(CCc1ccccc1)c1ccccc1OCC(O)CNc1ccc([N+](=O)[O-])cc1 (centres undefined) | 2570
74 | CCC(=O)c1ccccc1OCC(O)CN1CCCCC1 (centres undefined) | 14300
75 | c1ccc(CCC2c3ccccc3OC2CN2CCCCC2)cc1 (centres undefined) | 1620
76 | CCCNCC(O)COc1ccc(OCc2ccccc2)cc1C(=O)CCc1ccccc1 (centres undefined) | 110

Row | Structure (SMILES) | EC50 [nM]
77 | O=C1c2c(cccc2OCC(O)CN2CCCCC2)CC1Cc1ccccc1 (centres undefined) | 212
78 | O=C(CCc1ccccc1)c1ccccc1OCCCCN1CCOCC1 | 1010
79 | O=C(N/N=C/c1c(F)cccc1Cl)C(=O)N1CCCCCC1 | 159000
80 | O=C(CCc1ccccc1)c1ccccc1OCC(O)CNc1ccccc1 (centres undefined) | 6470
81 | O=C(CCc1ccccc1)c1ccccc1OCCCCCCCN1CCCCC1 | 179
82 | Cc1ccc(CCC(=O)c2ccccc2OCC(O)CN2CCN(c3ccccc3C)CC2)cc1 (centres undefined) | 18
83 | O=C(CCc1ccccc1)c1ccccc1OCCCCCN1CCCCC1 | 242
84 | Cc1ccccc1N1CCN(CC(O)COc2ccc(Cl)cc2C(=O)CCc2ccccc2)CC1 (centres undefined) | 59
85 | COc1ccc(C(=O)CCc2ccccc2)c(OCC(O)CN2CCN(c3ccccc3C)CC2)c1 (centres undefined) | 296
86 | O=C(CCc1ccccc1)c1cccc(OCC(O)CN2CCCCC2)c1 (centres undefined) | 424
87 | COc1ccc(C2Nc3ccccc3C(=O)N2c2ccc(Oc3ccccc3)cc2)cc1 (centres undefined) | 1000
88 | OC(COc1ccccc1C(O)CCc1ccccc1)CN1CCN(c2ccc(F)cc2)CC1 (centres undefined) | 671
89 | CC(=O)c1ccccc1OCC(O)CN1CCC(Cc2ccccc2)CC1 (centres undefined) | 357
90 | CCC(=O)N(Cc1ccccc1)CC(O)COc1ccccc1C(=O)CCc1ccccc1 (centres undefined) | 1650
91 | O=C(CCc1ccccc1)c1ccccc1OCC(O)CN(C(c1ccccc1)c1ccccc1)C(c1ccccc1)c1ccccc1 (centres undefined) | 10400
92 | CCC(=O)c1ccccc1OCC(O)CN1CCOCC1 (centres undefined) | 67000
93 | COc1ccc(-n2c(C3=NNC(=O)CC3)n[nH]c2=S)cc1 | > 250000
94 | CC(=O)c1cccc(OCC(O)CN2CCOCC2)c1 (centres undefined) | 128000
95 | Clc1ccccc1-c1nc(N2CCCC2)c2ccccc2n1 | 5940
96 | Cn1cc(I)c(C(=O)NNC(=O)c2ccnn2C)n1 | > 500000

Row | Structure (SMILES) | EC50 [nM]
97 | O=C(CCc1ccccc1)c1ccccc1OCC(O)CNc1ccc(C(F)(F)F)cc1 (centres undefined) | 8490
98 | Cc1cc(C)n(-c2nnc(N/N=C\c3cccnc3)nn2)n1 | 158000
99 | O=C(CCc1ccccc1)c1ccccc1OCC(O)CNC1CCCCC1 (centres undefined) | 341
100 | O=C(CCc1ccccc1)c1ccccc1OCC(O)CN1CCCCC1 (centres undefined) | 599
101 | O=C(CCc1ccccc1)c1cccc(OCC(O)CN2CCN(c3ccc(F)cc3)CC2)c1 (centres undefined) | 1120
102 | CC(=O)c1ccc(OCC(O)CN2CCN(c3ccc(F)cc3)CC2)cc1 (centres undefined) | 11900
103 | Cc1ccc(N2CCN(CC(O)COc3cccc4c3C(=O)C(Cc3ccccc3)C4)CC2)c(C)c1 (centres undefined) | 167
104 | CC(C)(C)c1ccc(CSc2nc3ccc(NC(=O)c4ccc(C(C)(C)C)cc4)cc3s2)cc1 | > 50000
105 | O=C(c1ccccc1)c1ccccc1OCC(O)CN1CCN(c2ccc(F)cc2)CC1 (centres undefined) | 147
106 | CC(=O)c1cc(C)ccc1OCC(O)CN1CCCCC1 (centres undefined) | 5470
107 | CC1c2ccccc2OC1CN1CCCCC1 (centres undefined) | 48900
108 | COC(CCc1ccccc1)c1ccccc1OCC(O)CN1CCN(c2ccc(F)cc2)CC1 (centres undefined) | 226
109 | O=C(CCc1ccccc1)c1ccccc1OCCCCN1CCN(c2ccc(F)cc2)CC1 | 192
110 | O=C1CC(CN2CCCCC2)Oc2ccccc21 (centres undefined) | 176000
111 | CC(=O)c1cccc(OCC(O)CN2CCCCC2)c1 (centres undefined) | 9070
112 | CCOC(=O)C(=NNc1c(Cl)cc(Cl)cc1Cl)C(=O)OCC | 17700
113 | c1ccc(CCc2c(CCN3CCCCC3)oc3ccccc23)cc1 | 980
114 | CN(C)c1ccc(-c2nc(C(F)(F)F)nc(C(F)(F)F)n2)cc1 | > 100000
